We go through one compound from patent US20150072929A1, “Pharmaceutical composition comprising a mixture of carboxylated oligopeptides” (priority 2013, published 2015).

One experiment relates to HeLa-2 cells. Put plainly: Anti-cancer activity in cell culture, MAD and cytopathic activity. Conditions: minimum amount causing degeneration of 90-95% of the cells, five days. The format is cell-based. On the procedure: The anti-cancer activity of MPs. The determination of the anti-cancer activity of Anticanum in a cell culture was made in a culture of HeLa-2 cells. For this purpose, 20-120 mcg of MPs per ml of medium were added to the 199 medium. (See Table 2.) A culture without MPs in it was used as a control. Cultures were observed daily over the course of five days.

The subject of the next experiment is benzidine skin sarcoma. Kind of experiment: Benzidine skin sarcoma in Barbados mice.
Experiment [1] concerns Ehrlich's ascites adenocarcinoma. Put plainly: Ehrlich's ascites adenocarcinoma in Barbados mice. Conditions: n = 10.

`CC(=O)O[C@@]12CO[C@@H]1C[C@H](O)[C@@]1(C)C(=O)[C@H](O)C3=C(C)[C@@H](OC(=O)[C@H](O)[C@@H](NC(=O)OC(C)(C)C)c4ccccc4)C[C@@](O)([C@@H](OC(=O)c4ccccc4)[C@H]21)C3(C)C` [Taxotere]: the MAD with HeLa-2 cells is 10 µg/mL. For the same compound, the “Weight of Animal, After Treatment” value with benzidine skin sarcoma (100 mcg/kg parenterally twice a day for two weeks, n = 7) came out at 23 ± 1.1 g. Further, the “Weight of Animal, Before Treatment” value in the experiment on benzidine skin sarcoma (baseline, n = 7) is reported as 27 ± 2 g. This compound had a Mice died with benzidine skin sarcoma (during treatment, n = 7) of 2. Also, in the experiment on benzidine skin sarcoma (n = 10), the “Animal Survival” value is 28 ± 1.1 days. Besides, the “Time of Death of Animals after the First Injection, Average Value, Experimental Animals” value turned out to be 14 ± 1 days in experiment [1] (IP) and 15 ± 1 days in experiment [1] (IV).
